Calls of active or inactive are those of the source. No rule for the calls is given here.
System: CCRIS mutagenicity, Ames/micronucleus/aberration tests
Test: CCRIS mutagenicity studies

Measured: mutagenic call

C=CCc1ccc2c(c1)OCO2
active: Test System: AMES SALMONELLA TYPHIMURIUM, Strain/Indicator: TA1535, Metabolic Activation: RAT, LIVER, S-9, AROCLOR 1254, PAPS, Method: STANDARD PLATE active; positive | Test System: CHINESE HAMSTER V-79, Strain/Indicator: V-79/6-THIOGUANINE, Metabolic Activation: NONE, Method: REPLATING active; positive | Test System: MOUSE LYMPHOMA, Strain/Indicator: L5178Y (TK+/+)/OUABAIN, Metabolic Activation: NONE, Method: SUSPENSION/PLATE active; positive | Test System: MOUSE LYMPHOMA, Strain/Indicator: L5178Y (TK+/+)/OUABAIN, Metabolic Activation: RAT LIVER S-9, AROCLOR 1254, Method: SUSPENSION/PLATE active; positive | Test System: MOUSE LYMPHOMA, Strain/Indicator: L5178Y (TK+/-)/TRIFLUROTHYMIDINE, Metabolic Activation: NONE, Method: SUSPENSION/PLATE active; positive | Test System: MOUSE LYMPHOMA, Strain/Indicator: L5178Y (TK+/TK-), Metabolic Activation: RAT, LIVER, S-9, Method: SUSPENSION/PLATE active; positive | Test System: UDS RAT HEPATOCYTES, Strain/Indicator: THY INCORP, Metabolic Activation: NONE, Method: LIQUID SCINTILLATION COUNTING active; positive
inactive: Test System: AMES SALMONELLA TYPHIMURIUM, Strain/Indicator: TA97, Metabolic Activation: HAMSTER LIVER S-9, AROCLOR 1254 (10%), Method: PREINCUBATION inactive; negative | Test System: AMES SALMONELLA TYPHIMURIUM, Strain/Indicator: TA97, Metabolic Activation: HAMSTER LIVER S-9, AROCLOR 1254 (30%), Method: PREINCUBATION inactive; negative | Test System: AMES SALMONELLA TYPHIMURIUM, Strain/Indicator: TA97, Metabolic Activation: NONE, Method: PREINCUBATION inactive; negative | Test System: AMES SALMONELLA TYPHIMURIUM, Strain/Indicator: TA97, Metabolic Activation: NONE, Method: STANDARD PLATE inactive; negative | Test System: AMES SALMONELLA TYPHIMURIUM, Strain/Indicator: TA97, Metabolic Activation: RAT LIVER S-9, AROCLOR 1254 (10%), Method: PREINCUBATION inactive; negative | Test System: AMES SALMONELLA TYPHIMURIUM, Strain/Indicator: TA97, Metabolic Activation: RAT LIVER S-9, AROCLOR 1254 (30%), Method: PREINCUBATION inactive; negative | Test System: AMES SALMONELLA TYPHIMURIUM, Strain/Indicator: TA97, Metabolic Activation: S-9, Method: STANDARD PLATE inactive; negative | Test System: AMES SALMONELLA TYPHIMURIUM, Strain/Indicator: TA98, Metabolic Activation: HAMSTER LIVER S-9, AROCLOR 1254 (10%), Method: PREINCUBATION inactive; negative | Test System: AMES SALMONELLA TYPHIMURIUM, Strain/Indicator: TA98, Metabolic Activation: HAMSTER LIVER S-9, AROCLOR 1254 (30%), Method: PREINCUBATION inactive; negative | Test System: AMES SALMONELLA TYPHIMURIUM, Strain/Indicator: TA98, Metabolic Activation: NONE, Method: PREINCUBATION inactive; negative | Test System: AMES SALMONELLA TYPHIMURIUM, Strain/Indicator: TA98, Metabolic Activation: NONE, Method: STANDARD PLATE inactive; negative | Test System: AMES SALMONELLA TYPHIMURIUM, Strain/Indicator: TA98, Metabolic Activation: RAT LIVER S-9, AROCLOR 1254 (10%), Method: PREINCUBATION inactive; negative | Test System: AMES SALMONELLA TYPHIMURIUM, Strain/Indicator: TA98, Metabolic Activation: RAT LIVER S-9, AROCLOR 1254 (30%), Method: PREINCUBATION inactive; negative | Test System: AMES SALMONELLA TYPHIMURIUM, Strain/Indicator: TA98, Metabolic Activation: RAT, LIVER, S-9, AROCLOR 1254, Method: STANDARD PLATE inactive; negative | Test System: AMES SALMONELLA TYPHIMURIUM, Strain/Indicator: TA98, Metabolic Activation: S-9, Method: STANDARD PLATE inactive; negative | Test System: AMES SALMONELLA TYPHIMURIUM, Strain/Indicator: TA100, Metabolic Activation: HAMSTER LIVER S-9, AROCLOR 1254 (10%), Method: PREINCUBATION inactive; negative | Test System: AMES SALMONELLA TYPHIMURIUM, Strain/Indicator: TA100, Metabolic Activation: HAMSTER LIVER S-9, AROCLOR 1254 (30%), Method: PREINCUBATION inactive; negative | Test System: AMES SALMONELLA TYPHIMURIUM, Strain/Indicator: TA100, Metabolic Activation: NONE, Method: PREINCUBATION inactive; negative | Test System: AMES SALMONELLA TYPHIMURIUM, Strain/Indicator: TA100, Metabolic Activation: NONE, Method: STANDARD PLATE inactive; negative | Test System: AMES SALMONELLA TYPHIMURIUM, Strain/Indicator: TA100, Metabolic Activation: RAT LIVER S-9, AROCLOR 1254 (10%), Method: PREINCUBATION inactive; negative | Test System: AMES SALMONELLA TYPHIMURIUM, Strain/Indicator: TA100, Metabolic Activation: RAT LIVER S-9, AROCLOR 1254 (30%), Method: PREINCUBATION inactive; negative | Test System: AMES SALMONELLA TYPHIMURIUM, Strain/Indicator: TA100, Metabolic Activation: RAT, LIVER, S-9, AROCLOR 1254, Method: STANDARD PLATE inactive; negative | Test System: AMES SALMONELLA TYPHIMURIUM, Strain/Indicator: TA100, Metabolic Activation: S-9, Method: STANDARD PLATE inactive; negative | Test System: AMES SALMONELLA TYPHIMURIUM, Strain/Indicator: TA102, Metabolic Activation: NONE, Method: STANDARD PLATE inactive; negative | Test System: AMES SALMONELLA TYPHIMURIUM, Strain/Indicator: TA102, Metabolic Activation: RAT LIVER S-9, PHENOBARBITAL AND 5,6-BENZOFLAVONE, Method: STANDARD PLATE inactive; negative | Test System: AMES SALMONELLA TYPHIMURIUM, Strain/Indicator: TA102, Metabolic Activation: S-9, Method: STANDARD PLATE inactive; negative | Test System: AMES SALMONELLA TYPHIMURIUM, Strain/Indicator: TA1535, Metabolic Activation: HAMSTER LIVER S-9, AROCLOR 1254 (10%), Method: PREINCUBATION inactive; negative | Test System: AMES SALMONELLA TYPHIMURIUM, Strain/Indicator: TA1535, Metabolic Activation: HAMSTER LIVER S-9, AROCLOR 1254 (30%), Method: PREINCUBATION inactive; negative | Test System: AMES SALMONELLA TYPHIMURIUM, Strain/Indicator: TA1535, Metabolic Activation: NONE, Method: PREINCUBATION inactive; negative | Test System: AMES SALMONELLA TYPHIMURIUM, Strain/Indicator: TA1535, Metabolic Activation: NONE, Method: STANDARD PLATE inactive; negative | Test System: AMES SALMONELLA TYPHIMURIUM, Strain/Indicator: TA1535, Metabolic Activation: PAPS, Method: STANDARD PLATE inactive; negative | Test System: AMES SALMONELLA TYPHIMURIUM, Strain/Indicator: TA1535, Metabolic Activation: RAT LIVER S-9, AROCLOR 1254 (10%), Method: PREINCUBATION inactive; negative | Test System: AMES SALMONELLA TYPHIMURIUM, Strain/Indicator: TA1535, Metabolic Activation: RAT LIVER S-9, AROCLOR 1254 (30%), Method: PREINCUBATION inactive; negative | Test System: AMES SALMONELLA TYPHIMURIUM, Strain/Indicator: TA1535, Metabolic Activation: RAT, LIVER, S-9, AROCLOR 1254, Method: STANDARD PLATE inactive; negative | Test System: AMES SALMONELLA TYPHIMURIUM, Strain/Indicator: TA1537, Metabolic Activation: NONE, Method: STANDARD PLATE inactive; negative | Test System: AMES SALMONELLA TYPHIMURIUM, Strain/Indicator: TA1537, Metabolic Activation: RAT, LIVER, S-9, AROCLOR 1254, Method: STANDARD PLATE inactive; negative | Test System: AMES SALMONELLA TYPHIMURIUM, Strain/Indicator: TA1538, Metabolic Activation: NONE, Method: STANDARD PLATE inactive; negative | Test System: AMES SALMONELLA TYPHIMURIUM, Strain/Indicator: TA1538, Metabolic Activation: RAT, LIVER, S-9, AROCLOR 1254, Method: STANDARD PLATE inactive; negative | Test System: AMES SALMONELLA TYPHIMURIUM, Strain/Indicator: TA2638, Metabolic Activation: RAT LIVER S-9, PHENOBARBITAL AND 5,6-BENZOFLAVONE, Method: STANDARD PLATE inactive; negative | Test System: CHINESE HAMSTER OVARY, Strain/Indicator: CHO/6-THIOGUANINE, Metabolic Activation: HAMSTER EMBRYO CELL-MEDIATED inactive; negative | Test System: CHINESE HAMSTER OVARY, Strain/Indicator: CHO/6-THIOGUANINE, Metabolic Activation: NONE inactive; negative | Test System: CHINESE HAMSTER OVARY, Strain/Indicator: CHO/OUABAIN, Metabolic Activation: HAMSTER EMBRYO CELL-MEDIATED inactive; negative | Test System: CHINESE HAMSTER OVARY, Strain/Indicator: CHO/OUABAIN, Metabolic Activation: NONE inactive; negative | Test System: CHINESE HAMSTER V-79, Strain/Indicator: V-79 (HGPRT)/6-THIOGUANINE, Metabolic Activation: NONE inactive; negative | Test System: CHINESE HAMSTER V-79, Strain/Indicator: V-79 (HGPRT)/6-THIOGUANINE, Metabolic Activation: RAT, LIVER, S-9, PHENOBARBITAL AND BETA-NAPHTHOFLAVONE inactive; negative | Test System: CHINESE HAMSTER V-79, Strain/Indicator: V-79/OUABAIN, Metabolic Activation: HAMSTER EMBRYO CELL-MEDIATED inactive; negative | Test System: CHINESE HAMSTER V-79, Strain/Indicator: V-79/OUABAIN, Metabolic Activation: NONE inactive; negative | Test System: CHINESE HAMSTER V-79, Strain/Indicator: V-79/OUABAIN, Metabolic Activation: RAT, LIVER, S-15, PHENOBARBITAL AND 5,6-BENZOFLAVONE inactive; negative | Test System: E. COLI, Strain/Indicator: WP2 (PKM101), Metabolic Activation: RAT LIVER S-9, PHENOBARBITAL AND 5,6-BENZOFLAVONE, Method: STANDARD PLATE inactive; negative | Test System: E. COLI, Strain/Indicator: WP2 UVRA (PKM101), Metabolic Activation: RAT LIVER S-9, PHENOBARBITAL AND 5,6-BENZOFLAVONE, Method: STANDARD PLATE inactive; negative | Test System: MOUSE LYMPHOMA, Strain/Indicator: L5178Y (TK+/-)/TRIFLUROTHYMIDINE, Metabolic Activation: RAT LIVER S-9, AROCLOR 1254, Method: SUSPENSION/PLATE inactive; negative | Test System: MOUSE LYMPHOMA, Strain/Indicator: L5178Y (TK+/TK-), Metabolic Activation: NONE, Method: SUSPENSION/PLATE inactive; negative
